Experimental data taken from the NIST ThermoML archive (doi:10.1021/je050020m).

Assay: xn = mol fraction of the nth substance listed
Conditions: Liquid, Vibrating tube method

CCCCCCCCCC [decane] + O=C=O
Conditions	mass density [kg/m3]
332.94 K, 23010 kPa, x2 = 0.9663	775.39
332.94 K, 23014 kPa, x2 = 0.0551	721.3
332.94 K, 24016 kPa, x2 = 0.9663	784.64
332.94 K, 24025 kPa, x2 = 0.2369	730.17
332.94 K, 24026 kPa, x2 = 0.4536	743.58
332.94 K, 24057 kPa, x2 = 0.0551	722.11
332.94 K, 25006 kPa, x2 = 0.9663	793.1
332.94 K, 25022 kPa, x2 = 0.4536	744.71
332.94 K, 25028 kPa, x2 = 0.2369	731.08
332.94 K, 25048 kPa, x2 = 0.0551	722.92
342.79 K, 13528 kPa, x2 = 0.9663	503.61
342.79 K, 14029 kPa, x2 = 0.9663	528.33
342.79 K, 15026 kPa, x2 = 0.9663	569.49
342.79 K, 16019 kPa, x2 = 0.9663	603.24
342.79 K, 17025 kPa, x2 = 0.9663	631.6
342.79 K, 18035 kPa, x2 = 0.9663	657.54
342.79 K, 19000 kPa, x2 = 0.9663	674.01
342.79 K, 20022 kPa, x2 = 0.9663	691.29
342.79 K, 21024 kPa, x2 = 0.9663	706.16
342.79 K, 22022 kPa, x2 = 0.9663	719.34
342.79 K, 23022 kPa, x2 = 0.9663	731.24
342.79 K, 24017 kPa, x2 = 0.9663	741.98
342.79 K, 25006 kPa, x2 = 0.9663	751.96
342.84 K, 13020 kPa, x2 = 0.8114	721.51
342.84 K, 14001 kPa, x2 = 0.8114	726.31
342.84 K, 15022 kPa, x2 = 0.8114	730.92
342.84 K, 16041 kPa, x2 = 0.8114	735.26
342.84 K, 17013 kPa, x2 = 0.8114	739.14
342.84 K, 18018 kPa, x2 = 0.8114	742.96
342.84 K, 19020 kPa, x2 = 0.8114	746.57
342.84 K, 20008 kPa, x2 = 0.8114	749.98
342.84 K, 21023 kPa, x2 = 0.8114	753.35
342.84 K, 22003 kPa, x2 = 0.8114	756.46
342.84 K, 23041 kPa, x2 = 0.8114	759.67
342.84 K, 24026 kPa, x2 = 0.8114	762.58
342.84 K, 25034 kPa, x2 = 0.8114	765.48
342.86 K, 2043 kPa, x2 = 0.0551	694.82
342.86 K, 3006 kPa, x2 = 0.0551	695.92
342.86 K, 4043 kPa, x2 = 0.0551	696.93
342.86 K, 5044 kPa, x2 = 0.0551	697.98
342.86 K, 6046 kPa, x2 = 0.0551	699.02
342.86 K, 6984 kPa, x2 = 0.0551	699.98
342.86 K, 8003 kPa, x2 = 0.0551	701
342.86 K, 8999 kPa, x2 = 0.0551	702.09
342.86 K, 10007 kPa, x2 = 0.0551	702.98
342.86 K, 11044 kPa, x2 = 0.0551	703.97
342.86 K, 11996 kPa, x2 = 0.0551	704.89
342.86 K, 13021 kPa, x2 = 0.0551	705.84
342.86 K, 13997 kPa, x2 = 0.0551	706.74
342.86 K, 15043 kPa, x2 = 0.0551	707.69
342.86 K, 16022 kPa, x2 = 0.0551	708.54
342.86 K, 17001 kPa, x2 = 0.0551	709.54
342.86 K, 17984 kPa, x2 = 0.0551	710.28
342.86 K, 19042 kPa, x2 = 0.0551	711.19
342.86 K, 20017 kPa, x2 = 0.0551	712.03
342.86 K, 21054 kPa, x2 = 0.0551	713.1
342.86 K, 22022 kPa, x2 = 0.0551	713.72
342.86 K, 23029 kPa, x2 = 0.0551	714.55
342.86 K, 24018 kPa, x2 = 0.0551	715.37
342.86 K, 25025 kPa, x2 = 0.0551	716.21
342.87 K, 5031 kPa, x2 = 0.2369	702.48
342.87 K, 6026 kPa, x2 = 0.2369	703.7
342.87 K, 7027 kPa, x2 = 0.4536	711.28
342.87 K, 7029 kPa, x2 = 0.2369	704.93
342.87 K, 8006 kPa, x2 = 0.2369	706.09
342.87 K, 8024 kPa, x2 = 0.4536	712.92
342.87 K, 9027 kPa, x2 = 0.4536	714.5
342.87 K, 9030 kPa, x2 = 0.2369	707.28
342.87 K, 10014 kPa, x2 = 0.4536	716.02
342.87 K, 10017 kPa, x2 = 0.2369	708.4
342.87 K, 11019 kPa, x2 = 0.2369	709.54
342.87 K, 11025 kPa, x2 = 0.4536	717.56
342.87 K, 12003 kPa, x2 = 0.2369	710.62
342.87 K, 12015 kPa, x2 = 0.4536	719.02
342.87 K, 13006 kPa, x2 = 0.4536	720.46
342.87 K, 13017 kPa, x2 = 0.2369	711.73
342.87 K, 14013 kPa, x2 = 0.2369	712.79
342.87 K, 14013 kPa, x2 = 0.4536	721.87
342.87 K, 15001 kPa, x2 = 0.4536	723.23
342.87 K, 15021 kPa, x2 = 0.2369	713.84
342.87 K, 16004 kPa, x2 = 0.2369	714.86
342.87 K, 16029 kPa, x2 = 0.4536	724.63
342.87 K, 17018 kPa, x2 = 0.2369	715.9
342.87 K, 17019 kPa, x2 = 0.4536	725.94
342.87 K, 18016 kPa, x2 = 0.2369	716.89
342.87 K, 18026 kPa, x2 = 0.4536	727.26
342.87 K, 19005 kPa, x2 = 0.2369	717.86
342.87 K, 19018 kPa, x2 = 0.4536	728.54
342.87 K, 20000 kPa, x2 = 0.2369	718.83
342.87 K, 20000 kPa, x2 = 0.4536	729.75
342.87 K, 21007 kPa, x2 = 0.4536	731.02
342.87 K, 21023 kPa, x2 = 0.2369	719.83
342.87 K, 22008 kPa, x2 = 0.2369	720.78
342.87 K, 22021 kPa, x2 = 0.4536	732.28
342.87 K, 23029 kPa, x2 = 0.2369	721.76
342.87 K, 23032 kPa, x2 = 0.4536	733.5
342.87 K, 23992 kPa, x2 = 0.2369	722.74
342.87 K, 24017 kPa, x2 = 0.4536	734.7
342.87 K, 25008 kPa, x2 = 0.2369	723.65
342.87 K, 25029 kPa, x2 = 0.4536	735.91
352.75 K, 14010 kPa, x2 = 0.9663	449.95
352.75 K, 15010 kPa, x2 = 0.9663	494.4
352.75 K, 16020 kPa, x2 = 0.9663	532.74
352.75 K, 17024 kPa, x2 = 0.9663	566.61
352.75 K, 18026 kPa, x2 = 0.9663	594.54
352.75 K, 19015 kPa, x2 = 0.9663	618.22
352.75 K, 20016 kPa, x2 = 0.9663	638.64
352.75 K, 21018 kPa, x2 = 0.9663	656.61
352.75 K, 22006 kPa, x2 = 0.9663	672.26
352.75 K, 23021 kPa, x2 = 0.9663	686.58
352.75 K, 24018 kPa, x2 = 0.9663	699.34
352.75 K, 25017 kPa, x2 = 0.9663	710.94
352.76 K, 14034 kPa, x2 = 0.8114	701.72
352.76 K, 15050 kPa, x2 = 0.8114	707.51
352.76 K, 15994 kPa, x2 = 0.8114	712.45
352.76 K, 17009 kPa, x2 = 0.8114	717.35
352.76 K, 18024 kPa, x2 = 0.8114	722.02
352.76 K, 19033 kPa, x2 = 0.8114	726.33
352.76 K, 20039 kPa, x2 = 0.8114	730.42
352.76 K, 21009 kPa, x2 = 0.8114	734.16
352.76 K, 22013 kPa, x2 = 0.8114	737.84
352.76 K, 23004 kPa, x2 = 0.8114	741.32
352.76 K, 24035 kPa, x2 = 0.8114	744.84
352.76 K, 25042 kPa, x2 = 0.8114	748.08
352.78 K, 2008 kPa, x2 = 0.0551	686.89
352.78 K, 3010 kPa, x2 = 0.0551	688.04
352.78 K, 4018 kPa, x2 = 0.0551	689.18
352.78 K, 5014 kPa, x2 = 0.0551	690.28
352.78 K, 6015 kPa, x2 = 0.0551	691.42
352.78 K, 7011 kPa, x2 = 0.0551	692.46
352.78 K, 8024 kPa, x2 = 0.0551	693.62
352.78 K, 8988 kPa, x2 = 0.0551	694.56
352.78 K, 10035 kPa, x2 = 0.0551	695.65
352.78 K, 11021 kPa, x2 = 0.0551	696.68
